Results on 2 compounds are retold here after publication PMC10206061, “Suxiao Jiuxin Pill attenuates acute myocardial ischemia via regulation of coronary artery tone” (Frontiers in Pharmacology, 2023).

The target in the experiment is T1, Akt1 (Homo sapiens, UniProt P31749).
T1 construct: recombinant human Akt1 protein (1775-KS-010, Bio-Techne)
As to the kind of experiment: SPR (Biacore T200, Akt1 amine-coupled on CM5 chip, […] steady-state fit). It is filed as binding.

Molecules are shown by their SMILES. Read-outs that look alike come from different tables or passages of the source.

T1 sequence (P31749 whole entry): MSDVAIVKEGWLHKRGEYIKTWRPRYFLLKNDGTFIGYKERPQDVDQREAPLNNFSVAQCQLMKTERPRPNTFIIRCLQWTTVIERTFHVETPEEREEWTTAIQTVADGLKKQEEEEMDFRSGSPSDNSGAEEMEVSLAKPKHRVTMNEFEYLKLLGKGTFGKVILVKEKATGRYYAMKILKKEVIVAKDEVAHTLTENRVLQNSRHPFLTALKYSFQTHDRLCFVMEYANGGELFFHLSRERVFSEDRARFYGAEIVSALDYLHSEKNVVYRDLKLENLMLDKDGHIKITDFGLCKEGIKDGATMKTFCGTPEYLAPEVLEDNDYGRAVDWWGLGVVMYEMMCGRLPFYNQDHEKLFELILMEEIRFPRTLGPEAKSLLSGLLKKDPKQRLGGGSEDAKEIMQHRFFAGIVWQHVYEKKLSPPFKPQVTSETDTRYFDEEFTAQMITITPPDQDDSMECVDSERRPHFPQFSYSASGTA

`CCCC[C@@H]1OC(=O)C2=C1CCC=C2` [senkyunolide A] gave a Kd of 752 µM.
For `COc1cc2ccc(=O)oc2cc1O` [scopoletin], where the note is “read-out: Kd”, the Kd came to 11.1 µM.
